Ki data for one compound are collected here from BindingDB's records for doi:10.1021/jm9807003 (National Institute of Diabetes, 1999).

The nature of this experiment: Ability to inhibit GTP-gamma-S binding to Opioid receptor delta 1 of guinea pig caudate.

By Ki is commonly meant a dissociation constant, usually derived from enzyme kinetics or from competition with a known ligand. Compound `COc1ccc2c(c1O)[C@]13CCN(CC4CC4)[C@H](C2)[C@@H]1Cc1c([nH]c2ccccc12)C3` [17-cyclopropylmethyl-6,7-didehydro-4-hydroxy-3-methoxy-6,7:2',3'-indolmorphinan] showed a Ki of 22 nM.
